Where two headings read alike, the source gives them in different places.
Assays:
[1] = test system: 5-HETE biosynthesized by glycogen-stimulated polymorphonuclear leucocytes (PMNs); experiment: Hydroxyacid Profile Assay (HPA): inhibition of 5-HETE synthesis in glycogen-elicited rabbit PMNs; format: cell-based; conditions: Oryctolagus cuniculus, Leucocyte; for inhibition at 100 µM: 5-HETE synthesis, read-out: Percent Inhibition (100 μM); for IC50: read-out: IC50 (50% inhibition of 5-HETE synthesis)
Experimental: As previously noted 5-HETE biosynthesis serves as a marker for arachidonic acid metabolism via the 5-lipoxygenase pathway which produces (poly)hydroxyeicosatetraenoic acids and the potent bronchoconstrictor and vasoactive leukotrienes LTC4, LTD4 and LTE4.
Buffer A (8.70 g NaCl; 0.27 g KCl; 0.42 g Na2 HPO4; 0.76 g KH2 PO4; and 1.00 g dextrose per liter H2 O; pH 7.0) (0.325 ml) is introduced into each of a battery of screwtop culture tubes. Then, a solution of a compound (0.100 ml) to be assayed is dispensed into individual tubes. Assays are performed in duplicate at 100 μM and 10 μM concentrations. Control tubes receive Buffer A (0 100 ml) in lieu of compound. Next, rabbit PMNs (2×10^7 cells/tube; 4×10^7cells/ml) (0.500 ml) are added to each tube. The rabbit PMN's used are elicited with glycogen and made into a preparation substantially as described by F. Hirata. et al (1979) Proc. Natl. Acad. Sci. USA, 76, 2640-2643. The tubes are vortexed and preincubated in a shaking 37° C. water bath for 15 minutes.
Thereafter, the tubes are removed from the water bath and calcium ionophore solution (400 μg/ml A-23187; Sigma Chemical Co., St. Louis, Mo.) (0.025 ml), ^14 C-arachidonic acid (0.25 μCi in 0.025 ethanol; New England Nuclear Products, Boston, Mass.) (0.025 ml) and calcium chloride solution (CaCl2.2H2 O ); 105.8 mg/10 […]) (0.025 ml) are added in that order. The tubes are vortexed and returned to the water bath for 30 minutes. The reaction is then terminated by the addition of HCl (0.8N, 0.025 ml).
Extraction and concentration of ^14 C-labeled 5-HETE is performed as follows. First, solution containing 2 parts ethyl acetate, 3 parts CH2 Cl2 and 0.01 ml unlabeled arachidonic acid is added (5.01 ml) to each tube. The tubes are capped and briefly vortexed. The contents of each tube is poured into a polypropylene column fitted with a porous polyethylene disc and Whatman phase separation filter paper. The organic phase is collected by gravity filtration into a conical centrifuge tube, While the aqueous phase is retained in the column by the phase separation paper. Each culture tube is rinsed once with the EtOAc:CH2 Cl2 solution (1.0 ml) and the wash added to the column. The organic phase is concentrated to (0.5 ml) using a Savant Speed Vac concentrator (Savant Instruments, Inc., Hicksville, N.Y.).
After concentration of the organic phase, the tubes are vortexed and stored covered on ice. An aliquot (0.01 ml) is then removed for liquid scintillation counting in a Beckman LS7500 Liquid Scintillation Counter (Beckman Instruments Corp., Fullerton, Calif.). Based on the count, the number of μl containing 1×10^5 cpm is calculated. This volume is applied to a silica gel covered glass plate in a 10 mm streak. The remaining fluid in the tube is measured via syringe and noted.
The TLC plate is placed in a chromatography chamber containing the following solvent system: CHCl3 :MeOH:HOAc:H2 O (v/v;90: 9:1:0.65). The plate is then air dried and counted on a Berthold Linear TLC Analyzer (Berthold Instruments, Inc., Pittsburgh, Pa.) for 30 minutes per lane if a dose response curve had been run, or for 5 min per lane if drug screening had been done. The integrated area of the 5-HETE band for each compound is converted to percent of control and analyzed. The percent inhibition at 100 μM compound concentration and the concentration (μM) which produces a 50% inhibition of 5-HETE synthesis (IC50), are determined for those compounds described in Examples 1-36, and are reported in Table 1 .

guinea pig ileal strips = experiment: Modified Schultz-Dale Assay: inhibition of antigen-induced anaphylactic contraction of passively sensitized ileal strips; format: cell-based; conditions: Cavia porcellus; for IC50: value in parentheses
Experimental: In the classic Schultz-Dale assay, guinea pigs are sensitized with a known immunogen or passively sensitized with guinea pig antiserum to the immunogen, strips of ilea are recovered, and the extent of their contraction in response to a challenge exposure to the same antigen is observed as a measure of anaphylactic response. The experiments described here follow this same procedure while exposing the ileal strips to test compound before exposure to antigen challenge (preincubation) and, in some strips, also after antigen challenge (postincubation).
The male Hartley strain guinea pigs (450-650 g) whose ilea are used in this Schultz-Dale assay are passively sensitized with IgE antiovalbumin antiserum as follows. The antiserum is developed in another group of similar guinea pigs as described in Graziano, et al., J. Immunol. 127:1067-1070 (1981) and pooled. The test animals are then each passively sensitized by subcutaneous injection of the pooled antiserum (1 ml).
About 2-7 days after sensitization, the guinea pigs are sacrificed and the terminal ilea are removed. They are cut into strips (6 cm) and positioned in tissue baths (5 ml) of Tyrode's solution with atropine (1 μg/ml) at 37° C. One end of each strip is fixed to an immobile post and the other movably mounted to a Grass Ft. 0.03 linear force displacement transducer and a Grass Model 7 polygraph. The tension is set (at 1 gram) and the tissue is allowed to equilibrate (10 minutes). Tissue viability is tested by establishing a consistent response to histamine (0.5 μg/ml). After several histamine-induced contractions, mepyramine (1 μg/ml) is added to inhibit any contractions due to the anaphylactic release of endogenous histamine.
A minimum of 3 animals are used for each compound tested and, of the 6 strips from each animal, 2 strips are incubated (preincubation) with a test compound (final concentration 75 μM), 2 with an appropriate reference standard (BW-755C at 75 μM) and 2 with saline solution (control) for a predetermined period (5 minutes). After this initial incubation period, ovalbumin (100 μg/ml) is added to each bath and the resulting anaphylactic contraction measured. The data are recorded as of tension produced by the tissue in excess of the 1 gram tension that was initially set. At the peak of the contraction, a dose of the same test compound (75 μM) is added (postincubation) to one control strip and reference standard (FPL-55712 at 1.9 μM). The strips are monitored (1 minute) and any effect on the established contraction is recorded as described above.
Two types of data are derived from the above protocol. First, pre-antigen inhibition (prechallenge) is expressed as the percent inhibition in each of the strips preincubated with test compound measured against the averaged contractions of the two control strips. Prechallenge inhibition by the reference standard is also determined in each experiment as a positive control. The reference used consistently gives 60-80% inhibition. Second, post-antigen inhibition (postchallenge) is determined by measuring the decrease in anaphylactic contraction of a control strip produced by adding either a test compound or standard at the peak of the contraction. The reference used consistently gives 70-90% inhibition. The data in each experiment, therefore, consists of 2 prechallenge and 1 postchallenge value for both test compound and standard.

[2] = added at peak of contraction after antigen, read-out: Postchallenge mean percent inhibition
[3] = preincubation before ovalbumin antigen, read-out: Prechallenge mean percent inhibition
[4] = added at peak of contraction after antigen, read-out: Postchallenge IC50
[5] = preincubation before ovalbumin antigen, read-out: Prechallenge IC50

`CCCCCCCc1ccc(C(=O)[C@@H]2CCCC[C@H]2C(=O)O)cc1` (relative stereo) [Example 23, Trans-2-(4-heptylbenzoyl)cyclohexane-1-carboxylic acid] gave an inhibition at 100 µM [1] of 70%, an IC50 [1] of 5 µM and an inhibition at 75 µM (guinea pig ileal strips; [2]) of 76%. The inhibition at 75 µM (guinea pig ileal strips; [3]) was 100%, the IC50 (guinea pig ileal strips; [4]) was > 25 µM and the IC50 (guinea pig ileal strips; [5]) was 14 µM.

`CCCCCCCCCc1ccc(C(=O)[C@@H]2CCCC[C@H]2C(=O)O)cc1` (relative stereo) [Example 32, Trans-2-(4-n-nonylbenzoyl)cyclohexane-l-carboxylic acid] showed an inhibition at 100 µM [1] of 85%, an inhibition at 75 µM (guinea pig ileal strips; [2]) of 20% and an inhibition at 75 µM (guinea pig ileal strips; [3]) of 92%.

With `NC1=NN(c2cccc(C(F)(F)F)c2)CC1` [BW-755C, reference compound] the inhibition at 75 µM (guinea pig ileal strips; positive control, preincubation, read-out: Prechallenge inhibition by the reference standard) was 60 to 80%.

With `CCCCCCc1ccc(C(=O)CCCCC(=O)O)cc1` [Example 5, 5-(4-n-Hexylbenzoyl)pentanoic acid] the inhibition at 100 µM [1] was 47%, the inhibition at 75 µM (guinea pig ileal strips; [2]) was 58% and the inhibition at 75 µM (guinea pig ileal strips; [3]) was 65%.

`CCCCCCCCc1ccc(C(=O)CCCCC(=O)O)cc1` [Example 6, 5-(4-n-Octylbenzoyl)pentanoic acid] was tested, and the inhibition at 100 µM [1] was 77%, the inhibition at 75 µM (guinea pig ileal strips; [2]) was 0% and the inhibition at 75 µM (guinea pig ileal strips; [3]) was 63%.

`CCCCCCCc1ccc(C(=O)CCCCC(=O)O)cc1[N+](=O)[O-]` [Example 7, 5-(3-Nitro-4-n-heptylbenzoyl)pentanoic acid] was tested, and the inhibition at 100 µM [1] was 84%, the inhibition at 75 µM (guinea pig ileal strips; [2]) was 28% and the inhibition at 75 µM (guinea pig ileal strips; [3]) was 96%. The IC50 (guinea pig ileal strips; [4]) was > 75 µM and the IC50 (guinea pig ileal strips; [5]) was 14 µM.

Work on `CCCCCCCc1ccc(C(=O)CCCCC(=O)O)cc1N` [Example 8, 5-(3-Amino-4-n-heptylbenzoyl)pentanoic acid] yielded an inhibition at 100 µM [1] of 47%, an inhibition at 75 µM (guinea pig ileal strips; [2]) of 48% and an inhibition at 75 µM (guinea pig ileal strips; [3]) of 94%. For the same molecule, the IC50 (guinea pig ileal strips; [4]) was > 75 µM and the IC50 (guinea pig ileal strips; [5]) was 37 µM.

`CCCCCCOc1ccccc1C(=O)CCCCC(=O)O` [Example 13, 5-(2-n-Hexyloxybenzoyl)pentanoic acid] was tested, and the inhibition at 100 µM [1] was 64%, the inhibition at 75 µM (guinea pig ileal strips; [2]) was 43% and the inhibition at 75 µM (guinea pig ileal strips; [3]) was 87%. It also gave an IC50 (guinea pig ileal strips; [4]) of 45 µM and an IC50 (guinea pig ileal strips; [5]) of 15 µM.

With `CCCCCc1ccc(C(=O)Cc2cccc(C(=O)O)c2)cc1` [Example 15, 3-(4-pentylphenacyl)benzoic acid] the inhibition at 100 µM [1] was 78%, the inhibition at 75 µM (guinea pig ileal strips; [2]) was 13% and the inhibition at 75 µM (guinea pig ileal strips; [3]) was 81%. For the same molecule, the IC50 (guinea pig ileal strips; [4]) was > 75 µM and the IC50 (guinea pig ileal strips; [5]) was 27 µM.

Work on `CCCCCCCc1ccc(C(=O)c2cccc(C(=O)O)c2)cc1` [Example 16, 3-(4-n-heptylbenzoyl)benzoic acid] yielded an inhibition at 100 µM [1] of 75%, an IC50 [1] of 4 µM and an inhibition at 75 µM (guinea pig ileal strips; [2]) of 63%. The inhibition at 75 µM (guinea pig ileal strips; [3]) was 86%, the IC50 (guinea pig ileal strips; [4]) was 57 µM and the IC50 (guinea pig ileal strips; [5]) was 12 µM.

`CCCCCCCc1ccc(C(=O)Cc2ccccc2C(=O)O)cc1` [Example 17, 2-(4-n-Heptylphenacyl)benzoic acid] gave an inhibition at 100 µM [1] of 80%, an inhibition at 75 µM (guinea pig ileal strips; [2]) of 100% and an inhibition at 75 µM (guinea pig ileal strips; [3]) of 90%. For the same molecule, the IC50 (guinea pig ileal strips; [4]) was 33 µM and the IC50 (guinea pig ileal strips; [5]) was 10 µM.

`CCCCCCCc1ccc(C(=O)Cc2cccc(C(=O)O)c2)cc1` [Example 18, 3-(4-n-Heptylphenacyl)benzoic acid] gave an inhibition at 100 µM [1] of 73%, an inhibition at 75 µM (guinea pig ileal strips; [2]) of 70% and an inhibition at 75 µM (guinea pig ileal strips; [3]) of 97%. The IC50 (guinea pig ileal strips; [4]) was 51 µM and the IC50 (guinea pig ileal strips; [5]) was 10 µM.

`CCCCCCCCc1ccc(C(=O)Cc2cccc(C(=O)O)c2)cc1` [Example 19, 3-(4-n-Octylphenacyl)benzoic acid] was tested, and the inhibition at 100 µM [1] was < 44%, the inhibition at 75 µM (guinea pig ileal strips; [2]) was 30% and the inhibition at 75 µM (guinea pig ileal strips; [3]) was 78%. For the same molecule, the IC50 (guinea pig ileal strips; [4]) was > 75 µM and the IC50 (guinea pig ileal strips; [5]) was 51 µM.

With `CCCCCCCc1ccc(C(=O)CC(C)(C)CC(=O)O)cc1` [Example 24, 4-(4-Heptylbenzoyl)-3,3-dimethylbutanoic acid] the inhibition at 100 µM [1] was 51%, the inhibition at 75 µM (guinea pig ileal strips; [2]) was 43% and the inhibition at 75 µM (guinea pig ileal strips; [3]) was 84%. For the same molecule, the IC50 (guinea pig ileal strips; [4]) was 40 µM and the IC50 (guinea pig ileal strips; [5]) was 26 µM.

Work on `CCCCOc1ccc(C(=O)c2cccc(C(=O)O)c2)c(OC)c1` [Example 25, 3-(4-Butoxy-2-methoxybenzoyl)benzoic acid] yielded an inhibition at 100 µM [1] of 70%, an inhibition at 75 µM (guinea pig ileal strips; [2]) of 46% and an inhibition at 75 µM (guinea pig ileal strips; [3]) of 84%. For the same molecule, the IC50 (guinea pig ileal strips; [4]) was 14 µM and the IC50 (guinea pig ileal strips; [5]) was 22 µM.

`CCCCOc1ccc(C(=O)c2cccc(C(=O)O)c2)c(O)c1` [Example 26, 3-(4-Butoxy-2-hydroxybenzoyl)benzoic acid] was tested, and the inhibition at 75 µM (guinea pig ileal strips; [2]) was 59% and the inhibition at 75 µM (guinea pig ileal strips; [3]) was 85%.

Molecule `CCCCOc1cc(OC)ccc1C(=O)c1cccc(C(=O)O)c1` [Example 28, 3-(2-Butoxy-4-methoxybenzoyl)benzoic acid] has an inhibition at 75 µM (guinea pig ileal strips; [2]) of 35% and an inhibition at 75 µM (guinea pig ileal strips; [3]) of 61%.

`CCCCCCOc1cc(C)ccc1C(=O)c1cccc(C(=O)O)c1` [Example 31, 3-(2-n-Hexyloxy-4-methylbenzoyl)-benzoic acid] was tested, and the inhibition at 75 µM (guinea pig ileal strips; [2]) was 59%, the inhibition at 75 µM (guinea pig ileal strips; [3]) was 81% and the IC50 (guinea pig ileal strips; [4]) was > 75 µM. It also gave an IC50 (guinea pig ileal strips; [5]) of 44 µM.

`CCCCCCCc1ccc(C(=O)c2cccc(-c3nn[nH]n3)c2)cc1` [Example 36, 5-3-(4-n-Heptylbenzoyl)phenyl!tetrazole] was tested, and the inhibition at 75 µM (guinea pig ileal strips; [2]) was 14%, the inhibition at 75 µM (guinea pig ileal strips; [3]) was 85% and the IC50 (guinea pig ileal strips; [4]) was > 75 µM. It also gave an IC50 (guinea pig ileal strips; [5]) of 7 µM.

`CCCc1c(OCC(O)COc2ccc3c(=O)cc(C(=O)O)oc3c2CCC)ccc(C(C)=O)c1O` (centres unmarked) [FPL-55712, reference compound] gave an inhibition at 1.9 µM (guinea pig ileal strips; 1.9 μM, positive control, added at peak of contraction, read-out: Postchallenge inhibition by the reference standard) of 70 to 90%.
